Data reported in PubChem BioAssay (NCI).
Several values for one entry are separate records, joined by “and”; a condition that tells them apart may be missing. Identical values can stand only once.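 A five-concentration, 48-hour dose response in 96-well plates underlies each endpoint, interpolated linearly between surrounding concentrations. At the GI50, growth is halved. TGI is the concentration that stops growth completely.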

Legend:
Experiment in all cases: NCI tumour cell line growth inhibition, 48 h
A549 NSCLC = tested on: A549 NSCLC
ACHN renal = tested on: ACHN renal
CCRF-CEM leukemia = tested on: CCRF-CEM leukemia
EKVX NSCLC = tested on: EKVX NSCLC
HCT-15 colon = tested on: HCT-15 colon
LOX IMVI melanoma = tested on: LOX IMVI melanoma
MDA-MB-435 = tested on: MDA-MB-435
NCI-H23 lung = tested on: NCI-H23 lung
SN12C renal = tested on: SN12C renal
SR leukemia = tested on: SR leukemia

| Structure (SMILES) | TGI (A549 NSCLC) | TGI (ACHN renal) | TGI (CCRF-CEM leukemia) [µM] | TGI (EKVX NSCLC) [µM] | TGI (HCT-15 colon) | TGI (LOX IMVI melanoma) | TGI (MDA-MB-435) | TGI (NCI-H23 lung) | TGI (SN12C renal) | TGI (SR leukemia) | GI50 (A549 NSCLC) | GI50 (ACHN renal) | GI50 (CCRF-CEM leukemia) | GI50 (EKVX NSCLC) [µM] | GI50 (HCT-15 colon) | GI50 (LOX IMVI melanoma) | GI50 (MDA-MB-435) | GI50 (NCI-H23 lung) | GI50 (SN12C renal) | GI50 (SR leukemia) |
| --- | --- | --- | --- | --- | --- | --- | --- | --- | --- | --- | --- | --- | --- | --- | --- | --- | --- | --- | --- | --- |
| COC(=O)c1c[nH]c(=O)[nH]c1=O | > 100 µM | > 100 µM | > 100 | > 100 | > 100 µM | > 100 µM | > 100 µM | > 100 µM | > 100 µM | > 100 µM | – | – | – | – | – | – | – | – | – | – |
| CCN1CCN(c2nc(NNC(=O)Cc3ccccc3)nc(N3CCN(C(c4ccccc4)c4ccccc4)CC3)n2)CC1 | 5.23 µM | 3.07 µM | 6.71 | 30 | 3.76 µM | 3.43 µM | 3.2 µM | 18.8 µM | 3.44 µM | 5.31 µM | 2.17 µM | 1.65 µM | 2.51 µM | 9.99 | 1.9 µM | 1.89 µM | 1.75 µM | 5.51 µM | 1.85 µM | 1.92 µM |
| Cl.[Pt].[c-]1ccccc1-c1ccccn1.c1ccc(P(c2ccccc2)C([PH+](c2ccccc2)c2ccccc2)[PH+](c2ccccc2)c2ccccc2)cc1 | 15.1 µM | 11.5 µM | > 100 | 62.2 | > 100 µM | 4.6 µM | 6.65 µM | 18.4 µM | 7.03 µM | 28.6 µM | 1.32 µM | 1.84 µM | 2.4 µM | 2.3 | 2.81 µM | 1.65 µM | 2.45 µM | 1.19 µM | 0.942 µM | 1.21 µM |
| COc1ccc(C(=O)c2cc(OC)c(OC)c(OC)c2)cc1OC(C)=O | > 100 µM | > 100 µM | > 100 | > 100 | > 100 µM | > 100 µM | 0.0102 µM | > 100 µM | > 100 µM | > 75.2 µM | 0.115 µM | 0.0379 µM | 0.0353 µM | 2.24 | < 0.0136 µM | 0.022 µM | < 0.01 µM | 0.0662 µM | 0.0509 µM | < 0.01 µM |
| O=C(/C=C/c1ccc(C(F)(F)F)cc1)c1ccc(Nc2nc(NCCO)nc(NCCO)n2)cc1 | 10.8 µM | 15.6 µM | 10.7 | 16.8 | 11.3 µM | 3 µM | 14.2 µM | 17.4 µM | 9.7 µM | 7.11 µM | 2.91 µM | 4.38 µM | 3.24 µM | 3.49 | 3.07 µM | 1.56 µM | 3.82 µM | 3.85 µM | 2.71 µM | 2.3 µM |
| COc1ccc(-c2oc(=O)ccc2C#Cc2cc(OC)c(OC)c(OC)c2)cc1O | > 100 µM | 44.3 µM | > 100 | > 100 | > 100 µM | > 100 µM | 81.7 µM | 81.2 µM | > 100 µM | 33.5 µM | 39.5 µM | 11.6 µM | 2.79 µM | 66.7 | 26.3 µM | 24.2 µM | 11.5 µM | 22.3 µM | 41.5 µM | 2.75 µM |
| Cn1nc(C(F)(F)F)c(-c2ccc(Cl)c(C(F)(F)F)c2)c1-c1ccc(OCc2ccc(Cl)cc2)cc1O | 6.16 µM | 5.03 µM | 6.81 | 7.73 | 6 µM | 5.73 µM | 6.27 µM | 4.83 µM | 5.92 µM | 7.34 µM | 1.66 µM | 1.61 µM | 1.85 µM | 1.73 | 1.6 µM | 1.58 µM | 1.63 µM | 1.41 µM | 1.65 µM | 2.06 µM |
| COc1ccc(N2CCN(C(=O)c3ccccc3Nc3ccnc(C(F)(F)F)c3)CC2)cc1 | > 100 µM | > 100 µM | > 100 | > 100 | > 100 µM | > 100 µM | > 100 µM | > 100 µM | > 100 µM | > 100 µM | 61.5 µM | > 100 µM | 53.9 µM | 39.3 | > 100 µM | 60.1 µM | 38 µM | 17.3 µM | 64.4 µM | 10.8 µM |
| NC(=O)CCC(NC(=O)OCc1ccccc1)C(=O)OCC(=O)c1ccccc1 (stereo not given) | > 100 µM | > 100 µM | > 100 | > 100 | > 100 µM | > 100 µM | > 100 µM | > 100 µM | > 100 µM | > 100 µM | > 100 µM | > 100 µM | > 100 µM | > 100 | > 100 µM | > 100 µM | > 100 µM | > 100 µM | > 100 µM | > 100 µM |
| C[C@]12O[C@H](C[C@]1(O)CO)n1c3ccccc3c3c4c(c5c6ccccc6n2c5c31)CNC4=O | > 6.09 µM and 3.5 µM | > 6.5 µM and 3.13 µM | – | > 9.15 | 5.91 µM and 9.52 µM | 1.11 µM and 1.29 µM | 3.97 µM and 2.01 µM | 2.32 µM and 2.63 µM | 2.01 µM and 2.35 µM | 0.474 µM and 0.24 µM | 0.176 µM and 0.191 µM | 0.0222 µM and 0.0168 µM | 0.0501 µM and 0.0461 µM | 1.56 | 0.0605 µM and 0.0598 µM | 0.0531 µM and 0.13 µM | 0.044 µM and 0.0371 µM | 0.0843 µM and 0.189 µM | 0.0382 µM and 0.0293 µM | 0.0203 µM and 0.022 µM |
| CN(C)C[C@H]1CC[C@@H](CN(C)C)C1=O | > 50 µM | 15.1 µM | 5.02 | 24.3 | 11 µM | 14.2 µM | 19.6 µM | 18.4 µM | 15.4 µM | > 50 µM | – | – | 1.23 µM | – | – | – | – | – | – | – |
| COc1ccc(OC)c(-c2nc3sccn3c2/C=C2/C(=O)Nc3ccc(Cl)cc32)c1 | > 100 µM | > 100 µM | > 100 | > 100 | 58.9 µM | 40.5 µM | 44.9 µM | 51.4 µM | > 100 µM | 53.4 µM | 38.9 µM | 30.8 µM | 32.1 µM | 36.1 | 23.1 µM | 18.2 µM | 17.2 µM | 21.4 µM | 35.2 µM | 18.5 µM |
